Values joined by “and” are separate entries in the source; they are usually repeats but may differ in a detail not shown here. Equal entries are not always repeated.
Test system: mice
Test: Biological Example 5: acute toxicity experiment of single oral administration in mice
Format: in vivo
Details: single oral 1000 mg/Kg, Mean ± SD
Method: The mice were fasted one day before the experiment. On the day of the experiment, 6 mice (ICR mice, body weight of 19-21 g, three females and three males) were selected in each experiment group. First of all, one female and one male were selected to orally give 1000 mg/Kg, and observed for 5-10 minutes. If there were no obvious side effects, the remaining 4 animals were orally given the same dose, and observed for 10-15 minutes. If no animal died, the animals were placed in a box to balancedly feed for 7 days. The state was observed and the body weight was recorded daily.
Observation Indexes within 0-15 Minutes after Administration
Activity: restlessness, hyperactivity
Nervous system response: tremor, spasm, convulsion, ataxia, posture abnormality, etc.
Autonomic nerve: exophthalmos, salivation, tears, urination (hematuria), diarrhea, piloerection, breathing, etc.
State of Animal: lethargy, hyperactivity, excitement, hair loss, diarrhea, abnormal behavior, death, etc.

COCCCN1C(=O)CCC(N2C(=O)c3cccc(F)c3C2=O)C1=O (stereo not drawn) [Example 17, 4-fluoro-2-(1-(3-methoxypropyl)-2,6-dioxopiperidin-3-yl)isoindolin-1,3-dione]
Daily Body Weight (Female mice, Day 1): 18.6 ± 1.0 g | Daily Body Weight (Female mice, Day 2): 21.9 ± 0.4 g | Daily Body Weight (Female mice, Day 3): 22.7 ± 0.4 g | Daily Body Weight (Female mice, Day 4): 22.7 ± 0.4 g | Daily Body Weight (Female mice, Day 5): 23.0 ± 0.4 g | Daily Body Weight (Female mice, Day 6): 23.1 ± 1.0 g | Daily Body Weight (Female mice, Day 7): 22.7 ± 1.2 g | Daily Body Weight (Male mice, Day 1): 19.0 ± 0.7 g | Daily Body Weight (Male mice, Day 2): 24.0 ± 0.7 g | Daily Body Weight (Male mice, Day 3): 24.6 ± 0.8 g | Daily Body Weight (Male mice, Day 4): 24.6 ± 0.8 g | Daily Body Weight (Male mice, Day 5): 26.1 ± 0.7 g | Daily Body Weight (Male mice, Day 6): 28.1 ± 0.6 g | Daily Body Weight (Male mice, Day 7): 29.3 ± 1.0 g

CCOCCN1C(=O)CCC(N2C(=O)c3cccc(F)c3C2=O)C1=O (stereo not drawn) [Example 20, 4-fluoro-2-(1-(2-ethoxyethyl)-2,6-dioxopiperidin-3-yl)isoindolin-1,3-dione]
Daily Body Weight (Female mice, Day 1): 18.7 ± 0.4 g | Daily Body Weight (Female mice, Day 2): 21.6 ± 1.0 g | Daily Body Weight (Female mice, Day 3): 22.1 ± 1.0 g | Daily Body Weight (Female mice, Day 4): 22.1 ± 1.0 g | Daily Body Weight (Female mice, Day 5): 23.0 ± 1.4 g | Daily Body Weight (Female mice, Day 6): 23.3 ± 0.2 g | Daily Body Weight (Female mice, Day 7): 23.7 ± 0.8 g | Daily Body Weight (Male mice, Day 1): 18.8 ± 1.0 g | Daily Body Weight (Male mice, Day 2): 24.0 ± 1.1 g | Daily Body Weight (Male mice, Day 3): 25.3 ± 1.2 g | Daily Body Weight (Male mice, Day 4): 25.3 ± 1.2 g | Daily Body Weight (Male mice, Day 5): 26.7 ± 1.2 g | Daily Body Weight (Male mice, Day 6): 29.0 ± 1.1 g | Daily Body Weight (Male mice, Day 7): 29.3 ± 0.7 g

COCCN1C(=O)CCC(N2C(=O)c3cccc(N(C)C)c3C2=O)C1=O (stereo not drawn) [Example 3, 4-dimethylamino-2-(1-(2-methoxyethyl)-2,6-dioxopiperidin-3-yl)isoindolin-1,3-dione]
Daily Body Weight (Female mice, Day 1, 1000 mg/kg): 18.3 ± 0.4 g and 18.8 ± 0.4 g | Daily Body Weight (Female mice, Day 2, 1000 mg/kg): 21.7 ± 0.2 g and 22.1 ± 1.2 g | Daily Body Weight (Female mice, Day 3, 1000 mg/kg): 22.3 ± 0.2 g and 22.7 ± 0.8 g | Daily Body Weight (Female mice, Day 4, 1000 mg/kg): 22.6 ± 0.8 g and 23.0 ± 1.4 g | Daily Body Weight (Female mice, Day 5, 1000 mg/kg): 23.0 ± 1.4 g and 23.7 ± 1.9 g | Daily Body Weight (Female mice, Day 6, 1000 mg/kg): 22.6 ± 1.3 g and 24.1 ± 1.2 g | Daily Body Weight (Female mice, Day 7, 1000 mg/kg): 22.7 ± 0.4 g and 24.4 ± 1.8 g | Daily Body Weight (Male mice, Day 1, 1000 mg/kg): 18.8 ± 0.7 g and 18.0 ± 0.2 g | Daily Body Weight (Male mice, Day 2, 1000 mg/kg): 23.3 ± 0.1 g and 22.9 ± 0.3 g | Daily Body Weight (Male mice, Day 3, 1000 mg/kg): 24.3 ± 0.1 g and 24.3 ± 0.9 g | Daily Body Weight (Male mice, Day 4, 1000 mg/kg): 25.6 ± 0.7 g and 25.2 ± 1.1 g | Daily Body Weight (Male mice, Day 5, 1000 mg/kg): 26.9 ± 0.8 g and 27.0 ± 1.3 g | Daily Body Weight (Male mice, Day 6, 1000 mg/kg): 27.9 ± 0.9 g and 28.2 ± 1.9 g | Daily Body Weight (Male mice, Day 7, 1000 mg/kg): 28.6 ± 0.4 g and 28.5 ± 2.7 g

CSCCN1C(=O)CCC(N2C(=O)c3cccc(N)c3C2=O)C1=O (stereo not drawn) [Example 11, 4-amino-2-(1-(2-methylthioethyl)-2,6-dioxopiperidin-3-yl)isoindolin-1,3-dione]
Daily Body Weight (Female mice, Day 1): 18.1 ± 0.2 g | Daily Body Weight (Female mice, Day 2): 21.7 ± 0.2 g | Daily Body Weight (Female mice, Day 3): 22.4 ± 0.1 g | Daily Body Weight (Female mice, Day 4): 22.4 ± 0.1 g | Daily Body Weight (Female mice, Day 5): 23.5 ± 0.4 g | Daily Body Weight (Female mice, Day 6): 23.2 ± 0.8 g | Daily Body Weight (Female mice, Day 7): 23.2 ± 0.9 g | Daily Body Weight (Male mice, Day 1): 19.5 ± 0.6 g | Daily Body Weight (Male mice, Day 2): 23.7 ± 0.8 g | Daily Body Weight (Male mice, Day 3): 25.4 ± 0.4 g | Daily Body Weight (Male mice, Day 4): 25.4 ± 0.4 g | Daily Body Weight (Male mice, Day 5): 27.0 ± 0.5 g | Daily Body Weight (Male mice, Day 6): 29.0 ± 0.7 g | Daily Body Weight (Male mice, Day 7): 29.8 ± 1.0 g

COCCN1C(=O)CCC(N2C(=O)c3ccc(F)c(N)c3C2=O)C1=O (stereo not drawn) [Example 9, 4-amino-5-fluoro-2-(1-(2-methoxyethyl)-2,6-dioxopiperidin-3-yl)isoindolin-1,3-dione]
Daily Body Weight (Female mice, Day 1): 17.5 ± 0.6 g | Daily Body Weight (Female mice, Day 2): 22.1 ± 0.9 g | Daily Body Weight (Female mice, Day 3): 22.1 ± 0.7 g | Daily Body Weight (Female mice, Day 4): 22.8 ± 0.8 g | Daily Body Weight (Female mice, Day 5): 22.8 ± 1.0 g | Daily Body Weight (Female mice, Day 6): 22.7 ± 1.6 g | Daily Body Weight (Female mice, Day 7): 23.6 ± 1.7 g | Daily Body Weight (Male mice, Day 1): 18.3 ± 0.7 g | Daily Body Weight (Male mice, Day 2): 23.6 ± 0.7 g | Daily Body Weight (Male mice, Day 3): 24.1 ± 1.0 g | Daily Body Weight (Male mice, Day 4): 25.9 ± 1.1 g | Daily Body Weight (Male mice, Day 5): 27.2 ± 0.5 g | Daily Body Weight (Male mice, Day 6): 26.9 ± 1.4 g | Daily Body Weight (Male mice, Day 7): 27.9 ± 1.5 g

COCCN1C(=O)CCC(N2C(=O)c3cccc(NC(C)=O)c3C2=O)C1=O (stereo not drawn) [Example 1, 4-acetylamino-2-(1-(2-methoxyethyl)-2,6-dioxopiperidin-3-yl)isoindolin-1,3-dione]
Daily Body Weight (Female mice, Day 1): 18.5 ± 0.1 g | Daily Body Weight (Female mice, Day 2): 22.8 ± 0.3 g | Daily Body Weight (Female mice, Day 3): 23.2 ± 0.7 g | Daily Body Weight (Female mice, Day 4): 24.0 ± 0.2 g | Daily Body Weight (Female mice, Day 5): 25.3 ± 1.6 g | Daily Body Weight (Female mice, Day 6): 25.7 ± 1.6 g | Daily Body Weight (Female mice, Day 7): 27.1 ± 1.1 g | Daily Body Weight (Male mice, Day 1): 20.1 ± 1.4 g | Daily Body Weight (Male mice, Day 2): 23.8 ± 1.4 g | Daily Body Weight (Male mice, Day 3): 24.9 ± 1.0 g | Daily Body Weight (Male mice, Day 4): 26.3 ± 1.2 g | Daily Body Weight (Male mice, Day 5): 27.7 ± 1.3 g | Daily Body Weight (Male mice, Day 6): 29.2 ± 1.4 g | Daily Body Weight (Male mice, Day 7): 29.4 ± 1.4 g

COCCCN1C(=O)CCC(N2C(=O)c3ccc(N)cc3C2=O)C1=O (stereo not drawn) [Example 18, 5-amino-2-(1-(3-methoxypropyl)-2,6-dioxopiperidin-3-yl)isoindolin-1,3-dione]
Daily Body Weight (Female mice, Day 1): 18.4 ± 0.7 g | Daily Body Weight (Female mice, Day 2): 22.5 ± 0.8 g | Daily Body Weight (Female mice, Day 3): 23.8 ± 1.1 g | Daily Body Weight (Female mice, Day 4): 24.8 ± 1.5 g | Daily Body Weight (Female mice, Day 5): 24.8 ± 0.6 g | Daily Body Weight (Female mice, Day 6): 25.4 ± 0.7 g | Daily Body Weight (Female mice, Day 7): 25.2 ± 1.1 g | Daily Body Weight (Male mice, Day 1): 18.2 ± 0.4 g | Daily Body Weight (Male mice, Day 2): 23.0 ± 0.7 g | Daily Body Weight (Male mice, Day 3): 24.1 ± 0.4 g | Daily Body Weight (Male mice, Day 4): 25.6 ± 0.8 g | Daily Body Weight (Male mice, Day 5): 28.1 ± 1.1 g | Daily Body Weight (Male mice, Day 6): 29.0 ± 1.4 g | Daily Body Weight (Male mice, Day 7): 29.0 ± 1.0 g

CS(=O)(=O)CCN1C(=O)CCC(N2C(=O)c3cccc(N)c3C2=O)C1=O (stereo not drawn) [Example 13, 4-amino-2-(1-(2-methylsulfonylethyl)-2,6-dioxopiperidin-3-yl)isoindolin-1,3-dione]
Daily Body Weight (Female mice, Day 1): 18.8 ± 1.1 g | Daily Body Weight (Female mice, Day 2): 21.3 ± 0.3 g | Daily Body Weight (Female mice, Day 3): 21.8 ± 0.4 g | Daily Body Weight (Female mice, Day 4): 21.8 ± 0.4 g | Daily Body Weight (Female mice, Day 5): 23.0 ± 0.5 g | Daily Body Weight (Female mice, Day 6): 23.2 ± 0.9 g | Daily Body Weight (Female mice, Day 7): 23.6 ± 0.9 g | Daily Body Weight (Male mice, Day 1): 19.6 ± 0.7 g | Daily Body Weight (Male mice, Day 2): 23.1 ± 0.6 g | Daily Body Weight (Male mice, Day 3): 24.4 ± 0.9 g | Daily Body Weight (Male mice, Day 4): 24.4 ± 0.9 g | Daily Body Weight (Male mice, Day 5): 26.5 ± 0.5 g | Daily Body Weight (Male mice, Day 6): 28.3 ± 1.3 g | Daily Body Weight (Male mice, Day 7): 28.4 ± 0.8 g

CCOCCN1C(=O)CCC(N2C(=O)c3cccc(N)c3C2=O)C1=O (stereo not drawn) [Example 19, 4-amino-2-(1-(2-ethoxyethyl)-2,6-dioxopiperidin-3-yl)isoindolin-1,3-dione]
Daily Body Weight (Female mice, Day 1): 18.0 ± 0.6 g | Daily Body Weight (Female mice, Day 2): 20.7 ± 1.1 g | Daily Body Weight (Female mice, Day 3): 21.3 ± 0.6 g | Daily Body Weight (Female mice, Day 4): 22.8 ± 0.3 g | Daily Body Weight (Female mice, Day 5): 23.2 ± 0.7 g | Daily Body Weight (Female mice, Day 6): 23.3 ± 1.2 g | Daily Body Weight (Female mice, Day 7): 23.0 ± 1.7 g | Daily Body Weight (Male mice, Day 1): 18.9 ± 1.2 g | Daily Body Weight (Male mice, Day 2): 20.7 ± 1.1 g | Daily Body Weight (Male mice, Day 3): 21.3 ± 0.6 g | Daily Body Weight (Male mice, Day 4): 25.0 ± 2.0 g | Daily Body Weight (Male mice, Day 5): 24.8 ± 1.9 g | Daily Body Weight (Male mice, Day 6): 26.5 ± 1.9 g | Daily Body Weight (Male mice, Day 7): 27.7 ± 2.2 g

From patent US20220372013A2, “PIPERIDINE-2,6-DIONE DERIVATIVES AND CROHN'S DISEASE TREATING” (Tianjin Hemay Pharmaceutical Sci-Tech Co., Ltd, priority 2016, published 2022)
